ChEMBL document CHEMBL5233249, “Recent advancements in the development of heterocyclic anti-inflammatory agents” (Eur J Med Chem, 2020)
≈ marks a conversion by molar mass, not a printed value. Values belong to the molecule of their own block, whether it stands above or below them.

Columns and labels:
[1] = tested on: RAW264.7; assay: Anti-inflammatory activity in mouse RAW264.7 cells assessed as inhibition of LPS-induced NO production measured after 24 hrs; type: functional, cell-based; conditions: RAW264.7, 24 h
[2] = Antioxidant activity assessed as DPPH radical scavenging activity incubated for 20 mins by spectrophotometric analysis; type: functional
[3] = tested on: Rattus norvegicus; assay: Anti-inflammatory activity against Carrageenan-induced paw edema in PO dosed Wistar albino rat assessed as reduction in hind paw edema volume at 20 mg/kg relative to control; type: functional; set-up: scale not given: the % may be the effect or the level left
[4] = tested on: Rattus norvegicus; assay: Anti-inflammatory activity against formalin-induced foot paw edema in Wistar rat at 5 mg/kg, po assessed as inhibition of edema measured after 4 hr relative to control; type: functional
[5] = tested on: Mus musculus; assay: Anti-inflammatory activity in Carrageenan-induced paw edema mouse model assessed as inhibition of granuloma measured after 24 hrs relative to control; type: functional
[6] = tested on: Rattus norvegicus; assay: Anti-inflammatory activity in Carageenan-induced foot paw edema in Swiss albino rat assessed as reduction in volume of paw edema measured after 4 hr relative to control; type: functional; set-up: scale not given: the % may be the effect or the level left
[7] = tested on: Rattus norvegicus; assay: Anti-inflammatory activity in Carageenan-induced foot paw edema in Swiss albino rat assessed as reduction in volume of paw edema measured after 6 hr relative to control; type: functional; set-up: scale not given: the % may be the effect or the level left
[8] = tested on: Rattus norvegicus; assay: Anti-inflammatory activity in Carageenan-induced foot paw edema in Swiss albino rat assessed as reduction in volume of paw edema measured after 1 hr relative to control; type: functional; set-up: scale not given: the % may be the effect or the level left
[9] = tested on: Rattus norvegicus; assay: Anti-inflammatory activity in Carageenan-induced foot paw edema in Swiss albino rat assessed as reduction in volume of paw edema measured after 2 hr relative to control; type: functional; set-up: scale not given: the % may be the effect or the level left
[10] = tested on: RAW264.7; assay: Anti-inflammatory activity in mouse RAW264.7 cells assessed as inhibition of LPS-induced NO production in macrophages; type: functional, cell-based
[11] = tested on: Erythrocyte; assay: Anti-inflammatory activity in rat red blood cells assessed as stabilization of cell membrane at 500 microg/ml relative to control; type: functional; conditions: dose 500 µg/ml
[12] = tested on: Erythrocyte; assay: Anti-inflammatory activity in rat red blood cells assessed as stabilization of cell membrane at 200 microg/ml relative to control; type: functional; conditions: dose 200 µg/ml
[13] = Anti-inflammatory activity assessed using bovine serum albumin/egg albumin proteins assessed as protein denaturation measured at 95 degC for 20 mins by measuring turbidity by UV-Vis spectrophotometer; type: functional
[14] = Anti-inflammatory activity assessed as heat -induced protein denaturation using hen egg albumin at 31.25 ug/ml relative to control; type: functional; conditions: dose 31.25 µg/ml
[15] = Selectivity index, ratio of IC50 for ovine COX1 to IC50 for recombinant human COX2
[16] = molecular target: T1, Polyunsaturated fatty acid 5-lipoxygenase (Homo sapiens, UniProt P09917); assay: Inhibition of 5-LOX (unknown origin) after 5 mins by colorimetric method
T1 sequence (P09917 whole entry): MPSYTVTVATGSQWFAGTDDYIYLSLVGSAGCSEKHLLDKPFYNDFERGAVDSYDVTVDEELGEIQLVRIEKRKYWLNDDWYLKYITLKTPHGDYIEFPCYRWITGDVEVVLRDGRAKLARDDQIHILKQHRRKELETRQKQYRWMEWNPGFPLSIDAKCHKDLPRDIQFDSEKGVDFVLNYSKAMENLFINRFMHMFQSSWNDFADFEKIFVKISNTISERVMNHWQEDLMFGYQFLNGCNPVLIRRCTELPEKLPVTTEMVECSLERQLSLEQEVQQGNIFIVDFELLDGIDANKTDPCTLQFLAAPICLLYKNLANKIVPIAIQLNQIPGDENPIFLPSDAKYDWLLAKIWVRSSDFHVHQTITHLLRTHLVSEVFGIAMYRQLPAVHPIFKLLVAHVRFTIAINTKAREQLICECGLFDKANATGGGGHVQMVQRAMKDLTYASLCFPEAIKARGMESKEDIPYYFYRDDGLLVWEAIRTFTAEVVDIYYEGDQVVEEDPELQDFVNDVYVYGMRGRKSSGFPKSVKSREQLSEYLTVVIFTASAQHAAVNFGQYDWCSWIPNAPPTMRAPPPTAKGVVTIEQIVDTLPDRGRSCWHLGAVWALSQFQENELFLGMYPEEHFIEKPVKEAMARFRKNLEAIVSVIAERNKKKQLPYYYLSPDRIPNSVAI

[17] = tested on: Mus musculus; assay: Anti-inflammatory activity against Carrageenan-induced paw edema in mouse model assessed as inhibition of edema at 100 mg/kg measured after 3 hrs relative to control; type: functional; set-up: scale not given: the % may be the effect or the level left
[18] = tested on: Rattus norvegicus; assay: Anti-ulcerative activity in aspirin induced Wistar rat ulcer model assessed as inhibition of ulcer index at 20 mg/kg,po; type: functional
[19] = tested on: Rattus norvegicus; assay: Anti-inflammatory activity against formalin-induced foot paw edema in PO dosed rat at 10 mg/kg assessed as inhibition of edema measured after 5 hr relative to control; type: functional; set-up: scale not given: the % may be the effect or the level left
[20] = molecular target: T2, Prostaglandin G/H synthase 2 (Homo sapiens) (UniProt P35354); assay: Inhibition of COX-2 (unknown origin) assessed as inhibition at 100 mg/kg relative to control; type: organism-based
T2 sequence (whole entry): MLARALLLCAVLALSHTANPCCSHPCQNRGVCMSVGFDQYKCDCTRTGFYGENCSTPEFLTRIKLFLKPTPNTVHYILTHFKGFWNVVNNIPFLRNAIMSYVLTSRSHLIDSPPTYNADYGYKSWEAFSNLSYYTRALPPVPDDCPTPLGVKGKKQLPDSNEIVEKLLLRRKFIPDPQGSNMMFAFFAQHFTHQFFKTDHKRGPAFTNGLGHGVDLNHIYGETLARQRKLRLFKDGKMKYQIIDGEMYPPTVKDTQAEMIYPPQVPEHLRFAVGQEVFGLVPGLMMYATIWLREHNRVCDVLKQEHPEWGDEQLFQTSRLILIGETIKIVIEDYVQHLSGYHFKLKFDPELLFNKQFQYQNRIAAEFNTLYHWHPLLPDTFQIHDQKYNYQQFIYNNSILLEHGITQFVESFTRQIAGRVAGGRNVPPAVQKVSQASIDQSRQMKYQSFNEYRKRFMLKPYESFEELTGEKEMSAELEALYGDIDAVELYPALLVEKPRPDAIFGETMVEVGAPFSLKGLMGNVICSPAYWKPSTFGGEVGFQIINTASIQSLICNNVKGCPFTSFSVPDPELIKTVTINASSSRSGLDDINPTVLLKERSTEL

[21] = tested on: Rattus norvegicus; assay: Anti-inflammatory activity in Wistar rat assessed as reduced hind paw edema at 25 mg/kg relative to control; type: functional; set-up: scale not given: the % may be the effect or the level left

Structure (SMILES): O=C1O[C@H]([C@@H](O)CO)C(O)=C1O
Activity [2]: 81.3%

Structure (SMILES): O=C1/C(=N\Nc2ccccc2Br)C(Nc2ccccc2F)=NN1CNc1ccccc1
Activity [3]: 64%

Structure (SMILES): O=C1CSC(=S)C1NC1=NC2C(C=NN2c2ccccc2)C(=O)N1c1ccccc1 (configuration not stated)
inhibition in vivo at 5 mg/kg [4]: 85.7% | inhibition (INH) [5]: 45.6%

Structure (SMILES): CCCC1Nc2cc(C(=O)N/N=C/c3ccc(Cl)c(Cl)c3O)cc(C)c2N1 (configuration not stated)
Activity [6]: 79.51% | Activity [7]: 83.5% | Activity [8]: 43.3% | Activity [9]: 57.62%

Structure (SMILES): C[C@]12CCC(=O)C=C1CC[C@@H]1[C@@H]2[C@@H](O)C[C@@]2(C)[C@H]1CC[C@]2(O)C(=O)CO [HYDROCORTISONE]
IC50 [10]: 3260 nM

Structure (SMILES): C=CC(CO)[C@@H]1C[C@H]2c3[nH]c4ccccc4c3CCN2C(=O)[C@H]1CO (some centres not stated)
IC50 [10]: 1180 nM

Structure (SMILES): Cc1ccc(-c2nn(-c3ccccc3)cc2CCC(=O)OCc2cn(-c3ccc([N+](=O)[O-])cc3)nn2)cc1
Activity [11]: 97% | Activity [12]: 74% | IC50 [13]: 57.24 µg/mL (≈ 113 µM)

Structure (SMILES): COc1ccc2oc(=O)cc(COc3ccc4ccccc4c3/C=N/c3c(C)n(C)n(-c4ccccc4)c3=O)c2c1
Activity [14]: 53.6%

Structure (SMILES): CCCC1Nc2cc(C(=O)N/N=C/c3ccc(Cl)cc3Cl)cc(C)c2N1 (configuration not stated)
Activity [6]: 81.4% | Activity [7]: 90.3% | Activity [8]: 45.5% | Activity [9]: 59.38%

Structure (SMILES): COc1ccc(N/N=C2\C(=O)N(CNc3c(C)cccc3C)N=C2Nc2ccccc2F)cc1
Activity [3]: 51%

Structure (SMILES): Cc1ccc(-c2nn(-c3ccccc3)cc2C(O)C(F)(F)C(=O)NN)cc1 (configuration not stated)
inhibition [20]: 33.7% | Activity [2]: 70.9%

Structure (SMILES): NS(=O)(=O)c1ccc(-n2nc(C(=O)NNC(=O)c3cccc(Cl)c3)cc2-c2ccccc2)cc1
Activity [21]: >60%

Continued, in another order:

IC50 [1]: 620 nM
Structure (SMILES): C[C@@H]1C[C@H]2[C@@H]3CCC4=CC(=O)C=C[C@]4(C)[C@@]3(F)[C@@H](O)C[C@]2(C)[C@@]1(O)C(=O)CO [DEXAMETHASONE]

Selectivity Index [15]: 5.44
Structure (SMILES): Cc1cc(-c2ccccc2)n(-c2nc3c(cnn3-c3ccccc3)c(=O)n2-c2ccccc2)n1

IC50 [16]: 900 nM
Structure (SMILES): O=C(O)c1ccc(CSc2nc3cc(F)c(Oc4ccc(F)cc4)cc3[nH]2)cc1
Activity [17]: 66.13%

Selectivity Index [15]: 9.32
Structure (SMILES): COc1ccc(N2C(=O)/C(=C/c3cn(-c4ccc(S(C)(=O)=O)cc4)nc3-c3cccc(Cl)c3)NC2=S)cc1
UI [18]: 2.64 | Activity [19]: 60%

Selectivity Index [15]: 10
Structure (SMILES): NS(=O)(=O)c1ccc(-n2nc(C(=O)NNC(=O)c3cccc(C(F)(F)F)c3)cc2-c2ccccc2)cc1
Activity [21]: 62.48%

IC50 [1]: 860 nM
Structure (SMILES): C[C@]12CC[C@H]3[C@@H](CC=C4C[C@@H](O)CC[C@@]43C)[C@@H]1CC[C@@H]2C1=NN(C(N)=S)C(c2cccc(F)c2)C1 (some centres not stated)
